PubChem BioAssay (NCI)
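Briefly, cells in 96-well plates were exposed to five compound concentrations for 48 h, and endpoints were estimated by linear interpolation. At the TGI there is no net growth.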

Assays:
Assay in all cases: NCI tumour cell line growth inhibition, 48 h
SK-MEL-5 melanoma = system: SK-MEL-5 melanoma
SNB-75 CNS = system: SNB-75 CNS
HCT-116 colon = system: HCT-116 colon
HOP-92 NSCLC = system: HOP-92 NSCLC
RXF 393 renal = system: RXF 393 renal
COLO 205 colon = system: COLO 205 colon
BT-549 breast = system: BT-549 breast
786-0 renal = system: 786-0 renal
SK-MEL-2 melanoma = system: SK-MEL-2 melanoma
HL-60(TB) leukemia = system: HL-60(TB) leukemia
T-47D breast = system: T-47D breast
OVCAR-5 ovarian = system: OVCAR-5 ovarian
LOX IMVI melanoma = system: LOX IMVI melanoma
HS 578T breast = system: HS 578T breast
SK-OV-3 ovarian = system: SK-OV-3 ovarian
UO-31 renal = system: UO-31 renal
CCRF-CEM leukemia = system: CCRF-CEM leukemia

SMILES	TGI (SK-MEL-5 melanoma)	TGI (SNB-75 CNS)	TGI (HCT-116 colon)	TGI (HOP-92 NSCLC)	TGI (RXF 393 renal)	TGI (COLO 205 colon)	TGI (BT-549 breast)	TGI (786-0 renal)	TGI (SK-MEL-2 melanoma)	TGI (HL-60(TB) leukemia)	TGI (T-47D breast)	TGI (OVCAR-5 ovarian)	TGI (LOX IMVI melanoma)	TGI (HS 578T breast)	TGI (SK-OV-3 ovarian)	TGI (UO-31 renal)	TGI (CCRF-CEM leukemia)
COC(=O)C1=CCC[C@H]2[C@@]1(COC(C)=O)CC[C@@H](C)[C@]2(C)CC(=O)c1ccoc1	16.9 µM	> 50 µM	30.4 µM	37.8 µM	> 50 µM	27.3 µM	31.3 µM	> 50 µM	> 50 µM	24.5 µM	35.7 µM	> 50 µM	24.7 µM	> 50 µM	> 50 µM	> 50 µM	25.3 µM
CC(=O)O[C@H]1[C@@H](N2CCCCC2)C[C@H]2[C@@H]3CC=C4C[C@@H](N5CCCC5)CC[C@]4(C)[C@H]3CC[C@@]21C	> 100 µM	> 100 µM	> 100 µM	> 100 µM	> 100 µM	> 100 µM	> 100 µM	> 100 µM	> 100 µM	> 100 µM	> 100 µM	> 100 µM	> 100 µM	> 100 µM	> 100 µM	> 100 µM	> 100 µM
COc1ccc(-c2c(C#N)c(N)nc(Sc3ccccc3N)c2C#N)cc1	> 100 µM	–	> 100 µM	27.2 µM	30.1 µM	> 100 µM	> 100 µM	32.3 µM	39.7 µM	> 100 µM	17.5 µM	> 100 µM	> 100 µM	45.3 µM	32.6 µM	> 100 µM	> 100 µM
c1ccc([P+](Cc2ccc(C[P+](c3ccccc3)(c3ccccc3)c3ccccc3)s2)(c2ccccc2)c2ccccc2)cc1	> 100 µM	> 100 µM	> 100 µM	> 100 µM	> 100 µM	> 100 µM	> 100 µM	> 100 µM	> 100 µM	> 100 µM	> 100 µM	> 100 µM	> 100 µM	> 100 µM	> 100 µM	> 100 µM	> 100 µM
O=C(N/N=C\c1ccc([N+](=O)[O-])cc1)Nc1ccc2ccccc2c1	> 100 µM	68.1 µM	63.3 µM	54.4 µM	> 100 µM	71.3 µM	> 100 µM	32.7 µM	> 100 µM	–	> 100 µM	> 100 µM	> 100 µM	70.6 µM	89.1 µM	> 100 µM	> 100 µM
CSc1cc(Cl)c(C(=O)Nc2ccccc2)cc1S(=O)(=O)n1cc[nH]c1=O	> 100 µM	> 100 µM	> 100 µM	> 100 µM	> 100 µM	> 100 µM	> 100 µM	> 100 µM	> 100 µM	> 100 µM	> 100 µM	> 100 µM	> 100 µM	> 100 µM	> 100 µM	> 100 µM	> 100 µM
C[C@]12CC/C(=N\OCCN3CCCC3)C=C1CCC1C2CC[C@@]2(C)C1CC[C@]2(C)O (stereo not given in full)	29.9 µM	11.9 µM	18 µM	32.3 µM	75.5 µM	11.9 µM	28.2 µM	14.8 µM	44.2 µM	–	64 µM	> 100 µM	15.1 µM	43.7 µM	44.5 µM	24.4 µM	9.6 µM
CC1CCC2C(C(=O)O[C@H]3C4C=CO[C@@H](OC5OC(CO)C(O)C(O)C5O)C4[C@@]4(CO)O[C@@H]34)=CO[C@@H](OC3OC(CO)C(O)C(O)C3O)C12 (stereo not given in full)	> 10 µM	> 10 µM	> 10 µM	> 10 µM	> 10 µM	> 10 µM	> 10 µM	> 10 µM	> 10 µM	> 10 µM	> 10 µM	> 10 µM	> 10 µM	> 10 µM	> 10 µM	> 10 µM	> 10 µM
Clc1nc(NC23CC4CC(CC(C4)C2)C3)nc(NC23CC4CC(CC(C4)C2)C3)n1	> 100 µM	> 78 µM	> 100 µM	> 100 µM	> 80.2 µM	> 100 µM	> 100 µM	> 100 µM	57.6 µM	87.5 µM	> 89 µM	> 100 µM	> 100 µM	> 100 µM	> 100 µM	> 100 µM	> 90.8 µM
COc1ccc2c(c1)C1Oc3ccccc3CC1CO2 (stereo not given)	> 100 µM	98.7 µM	> 100 µM	87 µM	88.9 µM	> 100 µM	> 100 µM	> 100 µM	> 100 µM	50 µM	> 100 µM	> 100 µM	> 100 µM	> 100 µM	> 100 µM	75.8 µM	> 100 µM
ON[C@@H]1C=C[C@H](n2cnc3c(NC4CC4)ncnc32)C1	> 100 µM	> 100 µM	> 100 µM	> 100 µM	> 100 µM	> 100 µM	> 100 µM	> 100 µM	> 100 µM	–	> 100 µM	> 100 µM	> 100 µM	> 100 µM	> 100 µM	> 100 µM	> 100 µM
CCc1cn(C2CC(CO)C(CO)S2)c(=O)[nH]c1=O (stereo not given)	> 100 µM	> 100 µM	> 100 µM	> 100 µM	> 100 µM	> 100 µM	> 100 µM	> 100 µM	> 100 µM	> 100 µM	> 100 µM	> 100 µM	> 100 µM	> 100 µM	> 100 µM	> 100 µM	> 100 µM
COc1cccc(-c2nc(N)c(C#N)c3c2CCS(=O)(=O)c2ccc(C)cc2-3)c1	> 63.3 µM	54 µM	> 100 µM	> 100 µM	–	> 56.4 µM	> 100 µM	> 100 µM	> 100 µM	37.5 µM	> 100 µM	> 100 µM	> 100 µM	48 µM	> 100 µM	> 100 µM	65.1 µM
CCC(=O)NC(NNS(=O)(=O)c1ccc(C)cc1)(C(F)(F)F)C(F)(F)F	> 100 µM	> 100 µM	> 100 µM	> 100 µM	82.9 µM	> 100 µM	91.8 µM	> 100 µM	> 100 µM	> 100 µM	> 100 µM	> 100 µM	> 100 µM	> 100 µM	> 100 µM	> 100 µM	> 100 µM
COc1ccccc1OC/C(N=Cc1cccnc1)=N/NC(=O)c1ccncc1	–	> 100 µM	> 100 µM	> 100 µM	> 100 µM	> 100 µM	> 100 µM	> 100 µM	> 100 µM	> 100 µM	> 100 µM	> 100 µM	> 100 µM	> 100 µM	> 100 µM	–	> 100 µM
COC(=O)c1c(C)c2c(c(C)c1O)OC(=O)c1c(C)cc(O)c(C=O)c1O2	> 100 µM	–	> 100 µM	> 100 µM	> 100 µM	> 100 µM	> 100 µM	> 100 µM	–	> 100 µM	> 100 µM	> 100 µM	–	> 100 µM	> 100 µM	–	> 100 µM
N=c1oc2ccccc2cc1C(=O)Nc1ccccn1	> 100 µM	> 100 µM	> 100 µM	> 100 µM	> 100 µM	> 100 µM	> 100 µM	> 100 µM	> 100 µM	> 100 µM	> 100 µM	> 100 µM	> 100 µM	> 100 µM	> 100 µM	–	> 100 µM
COc1cc(C)cc2c1C(=O)C(NC(C)=O)=CC2=O	> 100 µM	> 100 µM	> 100 µM	> 100 µM	> 100 µM	> 100 µM	> 100 µM	> 100 µM	> 100 µM	53.2 µM	> 100 µM	> 100 µM	–	> 100 µM	> 100 µM	> 100 µM	> 100 µM
CCCCCCCCCCCC(=O)OCC(O)CO (stereo not given)	> 100 µM	> 100 µM	> 100 µM	> 100 µM	–	> 100 µM	> 100 µM	> 100 µM	> 100 µM	42.3 µM	> 100 µM	> 100 µM	> 100 µM	> 100 µM	> 100 µM	> 100 µM	> 100 µM
CCOC1OC(CO[Si](C)(C)C(C)(C)C)C(O)CC1n1ccc(=O)[nH]c1=O (stereo not given)	> 100 µM	> 100 µM	30.7 µM	> 100 µM	> 100 µM	> 100 µM	> 100 µM	> 100 µM	> 100 µM	–	> 100 µM	> 100 µM	31.6 µM	> 100 µM	–	> 100 µM	–
c1ccc2c(c1)n1c(N3CCCC3)[n+]3ccccc3c1c1c3cccc[n+]3c(N3CCCC3)n21	65.8 µM	68.5 µM	> 100 µM	> 100 µM	> 100 µM	74.9 µM	> 100 µM	> 100 µM	> 100 µM	> 100 µM	> 100 µM	> 100 µM	> 100 µM	> 100 µM	–	–	> 100 µM
CCOP(=O)(OCC)/C(C#N)=C/c1cccn1C	> 100 µM	> 100 µM	> 100 µM	> 100 µM	> 100 µM	> 100 µM	> 100 µM	> 100 µM	> 100 µM	–	> 100 µM	> 100 µM	> 100 µM	> 100 µM	> 100 µM	99.5 µM	89 µM
CCc1n[nH]c(=O)n1N	> 100 µM	> 100 µM	> 100 µM	> 100 µM	–	> 100 µM	> 100 µM	> 100 µM	> 100 µM	> 100 µM	> 100 µM	> 100 µM	> 100 µM	> 100 µM	> 100 µM	> 100 µM	> 100 µM
COc1ccc(/C=N/n2c(Cc3ccccc3)n[nH]c2=O)c(OC)c1	> 100 µM	28.6 µM	> 55.1 µM	> 75 µM	> 63.2 µM	> 31.6 µM	> 49 µM	> 69 µM	> 100 µM	–	> 100 µM	> 100 µM	> 85.3 µM	37.5 µM	> 60.7 µM	> 63.1 µM	> 100 µM
C=C(Cl)C(Cl)(CBr)CCCC(C)C (stereo not given)	> 100 µM	41.5 µM	24 µM	31.7 µM	44.2 µM	34.9 µM	> 100 µM	26.4 µM	–	> 55.1 µM	> 41.4 µM	35.6 µM	> 100 µM	26.9 µM	> 100 µM	39.2 µM	> 100 µM
CC1=CC(=O)c2ccc3c4ccccc4n(C)c3c2C1=O	30.5 µM	> 100 µM	> 100 µM	> 100 µM	> 100 µM	> 100 µM	> 100 µM	> 100 µM	53.1 µM	> 72.3 µM	> 100 µM	> 100 µM	–	> 100 µM	> 100 µM	> 100 µM	> 81.5 µM
NC(N)=N/N=C/c1c(Cl)nc2n1CCS2	–	> 100 µM	73.7 µM	> 100 µM	> 100 µM	> 100 µM	> 100 µM	> 100 µM	> 100 µM	> 100 µM	> 100 µM	> 100 µM	> 100 µM	> 100 µM	> 100 µM	> 100 µM	> 100 µM
C1=C(c2ccccc2)NC2=N[C@H]3CCCC[C@@H]3N2C1c1ccccc1 (stereo not given in full)	27.9 µM	24.3 µM	20.2 µM	25.2 µM	–	25.2 µM	24 µM	30.7 µM	32 µM	42.2 µM	35.5 µM	26.3 µM	29.6 µM	41.2 µM	29.3 µM	24.8 µM	43.4 µM
